Reference: PMC10818380, “Triphenylphosphonium Analogs of Short Peptide Related to Bactenecin 7 and Oncocin 112 as Antimicrobial Agents” (Pharmaceutics, 2024)
Like-named read-outs stand apart in the source and are kept apart here. Square brackets hold non-standard residues; d marks the D form. Peptide text beside a SMILES is read from it. * marks the point of attachment. X2 = c1ccc([P+](CCCCCCCCCCN*)(c2ccccc2)c2ccccc2)cc1; X1 = c1ccc([P+](CCN*)(c2ccccc2)c2ccccc2)cc1

Legend:
[1] = test system: E. coli JW5503 (∆tolC) (KanS) pDualrep2; assay: pDualrep2 double-reporter agar plate test; format: cell-based; conditions: 1 µL of 10 mM solution on agar plate
Method: The “pDualrep2” system was used to evaluate the mechanism of the antimicrobial action of the synthesized compounds. This system is based on the hypersensitive strain E. coli JW5503 (∆tolC) (KanS) transformed with the “pDualrep2” plasmid, which allows one to sort out suppressors of protein synthesis or SOS response inducers. Briefly, 1 µL of 10 mM water solutions of Bac(1–10), Bac(1–10, R/Y), Bac(1–10, R/Y)-Cn-TPP, TPP-C10-Bac(1–10, R/Y), and Onc112 were applied onto the agar plate that already contained a layer of the reporter strain E. coli JW5503 (∆tolC) (KanS) pDualrep2, and then the plate was incubated overnight at 37 °C. The agar plate was scanned using the ChemiDoc^TM Imaging System (Bio-Rad Laboratories, Hercules, CA, USA), containing two channels, “Cy3-blot” (553/574 nm; green pseudocolor) for Turbo Red Fluorescent Protein (TurboRFP) detection and “Cy5-blot” (588/633 nm; red pseudocolor) for Katushka2S fluorescence. […] Levofloxacin (LEV; 50 μg/mL, 1 μL) and erythromycin (ERY; 5 mg/mL, 1 μL) were utilized as positive controls for DNA and protein synthesis inhibitors, respectively.

E. coli ΔsbmA = assay: Antibacterial activity on agar plates, ΔsbmA strain versus wild type; format: cell-based; conditions: Figure 4B
Method: (§1) Antibiotic activity was also evaluated against the following strains: E. coli JW5503 ΔtolC (KanS) ermC, modified with the plasmid pKH80 [59], providing resistance to erythromycin due to the expression of ErmC methyltransferase; E. coli SQ171 ΔtolC transformed with the pAM552 plasmid; E. coli SQ171 ΔtolC modified with the pAM552 plasmid with A2059G substitution in the 23S rRNA; E. coli JW1052 ΔmdtH; E. coli JW0912 ΔompF; and E. coli JW0368 ΔsbmA [57]. The procedure was performed as described previously in [33]. In short, Petri dishes filled with LB solid medium containing a selective antibiotic and 1.5% agar were covered with the tested strains. After that, 1 µL of 10 mM water solutions of Bac(1–10), Bac(1–10, R/Y), Bac(1–10, R/Y)-Cn-TPP, TPP-C10-Bac(1–10, R/Y), and Onc112, LEV (25 μg/mL) in water, and ERY (5 mg/mL and 50 mg/mL) in DMSO were applied onto the agar plates. After overnight incubation at 37 °C, the plates were scanned using the ChemiDoc^TM Imagining System (Bio-Rad Laboratories, Hercules, CA, USA) in three channels (Cy2, Cy3, and Cy5). The obtained images were processed in the Image Lab^TM software (Version 6.0.1, Bio-Rad).

B. subtilis = assay: Membrane potential with fluorescent probe diS-C3-(5); format: cell-based; conditions: diS-C3-(5) fluorescence
Method: The membrane potential of B. subtilis was assessed by measuring the fluorescence emitted by the potential-dependent probe, diS-C3-(5). Bacterial cells derived from the overnight culture of B. subtilis were inoculated into a fresh LB medium and allowed to grow for 24 h until reaching an optical density of 0.8 at 600 nm. Subsequently, the bacteria were subjected to a 20-fold dilution in a buffer comprising 100 mM of KCl and 10 mM of Tris, adjusted to a pH of 7.4. Fluorescence measurements were conducted at 670 nm (with excitation at 630 nm) using a Fluorat-02-Panorama fluorimeter manufactured by Lumex Instruments in St. Petersburg, Russia.

HEK293T = assay: cells; format: cell-based, human; conditions: 72 h
Method: (§2) The cytotoxicity of the substances under study was tested using the MTT (3-(4,5-dimethylthiazol-2-yl)-2,5-diphenyltetrazolium bromide) assay with some modifications. The detailed procedure for the MTT assay is given in the Supplementary Materials (Section S5).
(§3) Two thousand five hundred cells per well for the MCF7, HEK293T, and A549 cell lines or 4000 cells per well for the VA13 cell line were plated in 135 µL of DMEM-F12 media with 10% FBS (both Gibco, Waltham, MA, USA) in a 96-well plate and were incubated in a 5% CO2 incubator for the first 16 h, without treatment. Then 15 µL of media-DMSO solutions of the tested substances were added to the cells (the final DMSO concentrations in the media were 1% or less), and the cells were treated for 72 h with 25 nM–50 µM (eight dilutions) of the tested substances (triplicate each). Serial dilutions of DMSO and doxorubicin were used as controls. The MTT reagent (Paneco LLC, Moscow, Russia) was then added to the cells at a final concentration of 0.5 g/L (10× stock solution in PBS was used) and incubated for 2.5 h at 37 °C in the incubator under an atmosphere of 5%
(§4) CO2. The MTT solution was then discarded, and 140 µL of DMSO (PharmaMed LLC, Krasnodar, Russia) was added. The plates were swayed on a shaker (60 rpm) to dissolve the formazan. The absorbance was measured using the VICTOR X5 Multilabel Plate Reader (PerkinElmer, Wa l th a m, MA, USA) at a wavelength of 565 nm (in order to measure formazan concentration). The resu l ts were used to construct a dose-response graph and to estimate IC50 values.
(§5) Figure S11.The dependencies of viability of cells after treatment by tested compounds.
(§6) (1 picture or pasted object on this page, not shown here)

MCF7 = assay: cells; format: cell-based, human
Method: as §2, §3, §4, §5, §6

VA13 = assay: cells; format: cell-based, human
Method: as §2, §3, §4, §5, §6

A549 = assay: cells
Method: as §2, §3, §4, §5, §6

[2] = test system: E. coli ΔompF, E. coli ΔmdtH; assay: Antibacterial activity on agar plates, ΔompF and ΔmdtH strains versus wild type; format: cell-based; conditions: Figure 4
Method: as §1

[3] = HEK293T, MTT, read-out: IC50 (50% inhibition of viability of cells)
[4] = MCF7, 72 h, MTT, read-out: IC50 (50% inhibition of viability of cells)
[5] = VA13, 72 h, MTT, read-out: IC50 (50% inhibition of viability of cells)
[6] = read-out: IC50 (50% inhibition of viability of cells), A549, 72 h, MTT

Q: For CC[C@H](C)[C@H](NC(=O)[C@H](CCCNC(=N)N)NC(=O)[C@@H](N)CCCNC(=N)N)C(=O)N[C@@H](CCCNC(=N)N)C(=O)N1CCC[C@H]1C(=O)N[C@@H](CCCNC(=N)N)C(=O)N1CCC[C@H]1C(=O)N1CCC[C@H]1C(=O)N[C@@H](Cc1ccc(O)cc1)C(=O)N[C@@H](CC(C)C)C(=O)NCC[P+](c1ccccc1)(c1ccccc1)c1ccccc1 [Compound 3, Bac(1–10, R/Y)-C2-TPP] (H-RRIRPRPPYL-X1; N-terminus assumed), which “inhibitory effect on growth of bacterial cells” value [1] is on record?
A: demonstrated an inhibitory effect on the growth of bacterial cells

Q: And the “reporter induction (Katushka2S red pseudocolor = protein synthesis inhibition)” value [1]?
A: red pseudocolor reporter induction was observed

Q: And the “antibacterial activity on E. coli ΔsbmA compared with wild-type strain” value (E. coli ΔsbmA)?
A: a decrease in the antibacterial activity

Q: What about the “effect on membrane potential of B. subtilis” value (B. subtilis; concentration not given) of the same molecule?
A: a decrease in the membrane potential

Q: And the IC50 (HEK293T; [3])?
A: > 50 µM

Q: And the IC50 (MCF7; [4])?
A: > 20 µM

Q: And the IC50 (VA13; [5])?
A: > 50 µM

Q: What about the IC50 (A549; [6]) of the same molecule?
A: > 50 µM

Q: Which results are given for CC[C@H](C)[C@H](NC(=O)[C@H](CCCNC(=N)N)NC(=O)[C@@H](N)CCCNC(=N)N)C(=O)N[C@@H](CCCNC(=N)N)C(=O)N1CCC[C@H]1C(=O)N[C@@H](CCCNC(=N)N)C(=O)N1CCC[C@H]1C(=O)N1CCC[C@H]1C(=O)N[C@@H](Cc1ccc(O)cc1)C(=O)N[C@@H](CC(C)C)C(=O)NCCCCCCCCCC[P+](c1ccccc1)(c1ccccc1)c1ccccc1 [Compound 4, Bac(1–10, R/Y)-C10-TPP] (H-RRIRPRPPYL-X2; N-terminus assumed)?
A: inhibitory effect on growth of bacterial cells [1]: demonstrated an inhibitory effect on the growth of bacterial cells; reporter induction (Katushka2S red pseudocolor = protein synthesis inhibition) [1]: red pseudocolor reporter induction was observed; effect on membrane potential of B. subtilis (B. subtilis; 1 µM): rapid decrease in the membrane potential; IC50 (HEK293T; [3]): 3.1 ± 0.5 µM; IC50 (MCF7; [4]): 10 ± 1 µM; IC50 (VA13; [5]): 12 ± 1 µM; IC50 (A549; [6]): 9.2 ± 0.9 µM

Q: How did the “reporter induction (Katushka2S red pseudocolor = protein synthesis inhibition)” value [1] turn out when CC[C@H](C)[C@H](NC(=O)[C@@H](CCCNC(=N)N)NC(=O)[C@H](CCCNC(=N)N)NC(=O)[C@@H]1CCCN1C(=O)[C@@H]1CCCN1C(=O)[C@H](CCCNC(=N)N)NC(=O)[C@@H]1CCCN1C(=O)[C@H](CCCNC(=N)N)NC(=O)[C@@H]1CCCN1C(=O)[C@H](CC(C)C)NC(=O)[C@H](Cc1ccc(O)cc1)NC(=O)[C@@H]1CCCN1C(=O)[C@@H]1CCCN1C(=O)[C@H](CCCCN)NC(=O)[C@H](CC(=O)O)NC(=O)[C@@H](N)C(C)C)C(=O)N[C@@H](Cc1ccc(O)cc1)C(=O)N[C@@H](CC(N)=O)C(=O)N[C@H](CCCNC(=N)N)C(N)=O [Onc112, reference compound] (H-VDKPPYLPRPRPPR[dR]IYN[dR]-NH2; N-terminus assumed) was run?
A: red pseudocolor reporter induction was observed

Q: And the “growth inhibition of E. coli ΔompF and ΔmdtH compared with wild-type strain” value [2]?
A: no significant difference in the growth inhibition

Q: What about the “antibacterial activity on E. coli ΔsbmA compared with wild-type strain” value (E. coli ΔsbmA) of the same molecule?
A: a decrease in the antibacterial activity

Q: And the IC50 (HEK293T)?
A: > 50 µM

Q: What about the IC50 (MCF7; 72 h) of the same molecule?
A: > 20 µM

Q: And the IC50 (VA13; 72 h)?
A: > 50 µM

Q: What about the IC50 (A549; 72 h) of the same molecule?
A: > 50 µM
